The source of these data is patent publication US20140378541A1, “Synthetic Epigallocatechin Gallate (EGCG) Analogs” (WAYNE STATE UNIVERSITY, priority 2011, published 2014).

Assay [1] concerns p21 protein. Nature of the assay: p21 protein level, Western blot, MDA-MB-231 cells. Format: cell-based, human. As to conditions: 3 h. Here is the method:
(§1) (A) EGCG analogs 23 and 30 inhibited breast cancer cell proliferation. MDA-MB-231 cells were treated with indicated concentrations of 23, 30 or metformin for 24 h, followed by a MTT assay. *, P<0.1; **, P<0.01. Columns, mean of three experiments; bars, SD. (B) EGCG analogs 23 and 30 activated AMPK at a dose-dependent manner, measured by elevated level of phosphor-AMPKα and its downstream proteins of phosphor-Raptor. […] MDA-MB-231 cells were treated with indicated concentrations of 23 or 30 for 3 h, followed by Western blot analysis with the indicated antibodies. The numbers underneath the Western results of p-AMPKα indicated normalized phosphor-AMPKα/β-actin ratios. […]
(§2) The Western blot analysis was performed as follows: A whole cell extract was prepared from the treated cells as described previously (Landis-Piwowar et al., Cancer research, 2007, 67: 4303-4310; Chen et al., Cancer research, 2007, 67: 1636-1644; Chen et al., Biochemical pharmacology, 2005, 69: 1421-1432). The cell extracts (30 μg) were then separated by an SDS-PAGE gel and transferred to nitrocellulose membranes. […]
A general note: A western blot detects proteins with antibodies after separation by electrophoresis.

Assay [2] has as its system CD44high/CD24low cell population of MDA-MB-231 cells. Nature of the assay: Flow cytometry of CD44high/CD24low cell population in MDA-MB-231 cells. As to conditions: 48 h. Type of assay: cell-based, human. Here is the method: The MDA-MB-231 cells were treated with the indicated concentrations of compounds 23 and 30 for 48 hours, followed by flow cytometry analysis. Columns show mean of three experiments; bars, SD; **, p<0.01; *, p<0.1.
The treated cells were washed once with phosphate-buffered saline (PBS) and then harvested with Cell Dissociation Buffer (enzyme-free, Invitrogen, cat. #13150-016). Detached cells were washed with PBS containing 1% FCS (a wash buffer), and resuspended in the wash buffer (1,000 cells/100 μl). The cells were stained with combinations of fluorochrome-conjugated monoclonal antibodies obtained from BD Biosciences (San Diego, Calif.) against human CD44 (FITC; cat. #555478) and CD24 (PE; cat. #555428) or their respective isotype controls at concentrations recommended by the manufacturer and incubated at 4° C. in the dark for 30 to 40 min. The labeled cells were washed in the wash buffer, then fixed in PBS containing 1% paraformaldehyde, and then analyzed on a FACSVantage (BD Biosciences) (Sheridan et al. Breast Cancer Res. (2006) 8, R59).
The flow cytometry analysis was performed as follows: The treated cells were washed once with phosphate-buffered saline (PBS) and then harvested with Cell Dissociation Buffer (enzyme-free, Invitrogen, cat. #13150-016). Detached cells were washed with PBS containing 1% FCS (a wash buffer), and resuspended in the wash buffer (1,000 cells/100 μl). The cell were stained with combinations of fluorochrome-conjugated monoclonal antibodies obtained from BD Biosciences (San Diego, Calif., USA) against human CD44 (FITC; cat. #555478) and CD24 (PE; cat. #555428) or their respective isotype controls at concentrations recommended by the manufacturer and incubated at 4° C. in the dark for 30 to 40 min. The labeled cells were washed in the wash buffer, then fixed in PBS containing 1% paraformaldehyde, and then analyzed on a FACSVantage (BD Biosciences) (Sheridan et al., Breast Cancer Res., 2006, 8: R59).
Metformin could selectively target cancer stem cells and reduce the CD44high/CD24low cell population in TNBC cells through activation of AMPK signaling (Hirsch et al., Cancer Research, 2009, 69: 7507-7511). To determine whether EGCG analogs 23 and 30 can reduce the stem cell population in the breast cancer cells, the human breast cancer MDA-MB-231 cells were treated with different concentrations of compounds 23 and 30 for 48 hours. The treated cells were stained with special antibodies against human CD44 (FITC), CD24 (PE) or their respective isotype controls, followed by washing, fixing and analysed by flow cytometry.
A general note: A flow cytometer gives signals particle by particle.

Assay [3] has as its system mTOR pathway (phosphor-p70-S6K). Nature of the assay: mTOR pathway, phosphor-p70-S6K Western blot, MDA-MB-231 cells. Type of assay: cell-based, human. As to conditions: 3 h. Here is the method:
as §1, §2

For assay [4], the target named is T1, purified rabbit 20S proteasome (Oryctolagus cuniculus, UniProt G1T4Q9).
T1 sequence (G1T4Q9 60-263): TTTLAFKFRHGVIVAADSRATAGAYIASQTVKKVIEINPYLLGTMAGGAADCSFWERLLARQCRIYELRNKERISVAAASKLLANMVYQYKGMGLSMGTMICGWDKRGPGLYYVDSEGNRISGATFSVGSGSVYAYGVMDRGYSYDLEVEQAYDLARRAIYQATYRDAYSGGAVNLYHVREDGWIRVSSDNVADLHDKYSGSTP
Nature of the assay: Inhibition of chymotrypsin-like activity of purified 20S proteasome. Format: biochemical. Particulars: purified 20S proteasome, concentration not stated. Here is the method: Purified 20S proteasome was incubated with compound 5, 7, 16, or 21 (A) or MDA-MB-231 cell extract (5.7 μg) was incubated with compound 6, 8, 17, or 22 (B) at indicated concentrations for 2 hours, followed by measuring the proteasomal chymotrypsin-like activity. EGCG was used as a comparative standard.
Purified rabbit 20S proteasome and fluorogenic substrate Suc-LLVY-AMC for the proteasomal chymotrypsin like (CT-like) activity were obtained from Calbiochem Inc. (San Diego, Calif.). Fetal bovine serum (FBS) was from Tissue Culture Biologicals (Tulare, Calif.). Penicillin and streptomycin were purchased from Invitrogen Co. (Carlsbad, Calif.). RPMI 1640 medium was purchased from Invitrogen Co. (Carlsbad, Calif.). MTT (3-4,5-dimethylthiazol-2-yl-2.5-diphenyl-tetrazolium bromide) was purchased from Sigma-Aldrich.
A purified rabbit 20S proteasome (35 ng) was incubated with 20 μM of substrate Suc-LLVY-AMC in 100 μl assay buffer (20 mM Tris-HCl, pH 7.5), in the presence of EGCG or EGCG analogs at different concentrations or the solvent for 2 h at 37° C., followed by measurement of hydrolysis of the fluorogenic substrates using a Wallac Victor3™ multi-label counter with 355-nm excitation and 460-nm emission wavelengths.

In the case of `Nc1ccc(C(=O)O[C@H]2Cc3ccccc3C[C@H]2OC(=O)c2ccc(N)cc2)cc1` [Compound 30], the p21 protein level result in assay [1] is given as “increased levels of p21 protein”. The “decrease of the CD44high/CD24low population” value came to 43.3% in assay [2] (10 μM) and 71.7% in assay [2] (20 μM). Also, in assay [2], the “reduction of CD44high/CD24low cell population (in words)” value was “can reduce the CD44high/CD24low cell population”. For the same molecule, in assay [3], the phosphor-p70-S6K level result is given as “decreased phosphor-p70-S6K”.

For the molecule `O=C(O[C@@H]1Cc2c(O)cc(O)cc2O[C@@H]1c1cc(O)c(O)c(O)c1)c1cc(O)c(O)c(O)c1` [Compound 1, (−)-Epigallocatechin gallate, reference compound], the “proteasomal inhibition (in words)” value in assay [4] was “potently inhibited”.

As for `O=C(O[C@H]1Cc2ccccc2C[C@H]1OC(=O)c1cc(O)c(Br)c(O)c1)c1cc(O)c(Br)c(O)c1` [Compound 23], the p21 protein level entry in assay [1] is on record as “increased levels of p21 protein”. Besides, the “reduction of CD44high/CD24low cell population (in words)” value in assay [2] was “can reduce the CD44high/CD24low cell population”. The phosphor-p70-S6K level entry in assay [3] is “decreased phosphor-p70-S6K”.
